Data published in patent publication US11147792B2, “Inhibitors of microbially induced amyloid” (Axial Therapeutics, Inc, priority 2017, dated 2021).
Where two headings read alike, the source gives them in different places.

Columns and labels:
E. coli CsgA = target: T1, E. coli CsgA (Escherichia coli, UniProt P28307); experiment: In vitro ThioflavinT assay of CsgA aggregation; format: biochemical; details: CsgA at 20 μM, ThT fluorescence at 18 hours
T1 construct: made in house; host or cells: E. coli NEB 3016 slyD::kan, pET11d
T1 sequence (P28307 23-151): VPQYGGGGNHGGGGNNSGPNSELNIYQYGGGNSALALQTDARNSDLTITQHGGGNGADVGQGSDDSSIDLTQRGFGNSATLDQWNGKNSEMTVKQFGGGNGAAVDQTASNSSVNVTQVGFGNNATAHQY
Protocol: In Vitro ThioflavinT Assay to Determine Effects of Compounds on CsgA Aggregation.
To assess the effects of compounds on aggregation of E. coli CsgA, a cell-free assay was performed using purified CsgA and Thioflavin T. In the assay, histidine-tagged CsgA was over-expressed in E. coli NEB 3016 slyD::kan cells harboring a pET11d vector containing csgA with the sequence for 6 histidine residues added to the C-terminus and without the Sec signal (amino acid 1-22) sequence. To induce over-expression of CsgA, 0.5 mM isopropyl β-D-1-thiogalactopyranoside (“IPTG”) was added to cultures with an optical density at 600 nm (OD600) of 0.8-1, and induced cells were cultured at 37° C. for 1 hour prior to harvest via centrifugation. Cells were lysed under denaturing conditions with 8 M guanidine hydrochloride in 50 mM potassium phosphate buffer pH 7.3, and CsgA was purified via immobilized-metal affinity chromatography by batch purification with Nickel-NTA agarose and a combination of low pressure and gravity flow through a disposable polypropylene column, including washes under low pressure applied manually via application of a syringe plunger to the column with 50 mM potassium phosphate buffer pH 7.3 followed by 12.5 mM imidazole in 50 mM potassium phosphate buffer pH 7.3, and elution by gravity flow with 125 mM imidazole in 50 mM potassium phosphate buffer pH 7.3. Buffers with imidazole were freshly prepared prior to the protein purification. Purified CsgA was passed through a 30 kDa molecular weight cut-off filter and passed through a desalting column. All steps of the CsgA purification in the absence of guanidine hydrochloride were conducted in rapid succession with as little delay as possible. The assay was conducted in 96-well black microplates with 40 μM ThioflavinT, 1% DMSO, CsgA at 20 μM, and compounds at 20 μM. Plates were incubated at 25° C. in a Tecan Nano F200 plate reader with excitation at 438 nm using a 439 nm filter with a bandwidth of 8 nm, and emission at 495 nm with a 490 nm filter with a bandwidth of 10 nm. During the assay, plates were shaken initially for 5 seconds and subsequently for 3 seconds prior to fluorescent readings. Readings were performed every 20 minutes for up to 24 hours. The effect of compounds on CsgA aggregation in the assay was determined with data from 18 hours, following the plateau of the fluorescent signal in the untreated (no compound) control wells containing CsgA. Fluorescence values for each compound with CsgA were first adjusted by subtracting the average fluorescence of the compound in the absence of CsgA. These adjusted values were normalized by dividing them by the average fluorescence in the no-compound (i.e., untreated) control wells containing CsgA […], and the average normalized fluorescence with the compound was expressed as a percentage of the average fluorescence observed in untreated controls.

[1] = system: Thy1-αSyn mice (ASO) mono-colonized with WT E. coli; experiment: Motor function of germ-free Thy1-αSyn (ASO) mice mono-colonized with WT E. coli, EGCG in drinking water; format: in vivo, mouse; details: EGCG ad lib in drinking water vs vehicle
Protocol: Evidence has linked unregulated α-synuclein expression in humans to a higher risk of PD, providing an epidemiological foundation for the Thy1-α-synuclein mouse model. Defects in coordinated motor tasks become evident at 12 weeks of age. Motor function is measured via four tests: beam traversal, pole descent, nasal adhesive removal, and hind limb clasping reflexes, as previously validated in this model (described in Fleming et al., J. Neurosci. 24, 9434-9440 (2004), and Sampson et al., Cell 167(6):1469-1480 (2016) the content of which are hereby expressly incorporated by reference in its entirety). […] Removal of an adhesive from the nasal bridge, a test of fine motor control, is also impaired in SPF-ASO mice compared to SPF-WT mice, as is the hind limb clasping reflex, a measure of striatal dysfunction.
Germ-free Thy1-αSyn mice (ASO) mono-colonized with WT E. coli at 5-6 weeks of age, and given water alone (Vehicle: Veh) or treated with EGCG ad lib in drinking water (+EGCG). RNA was extracted from fecal pellets and csgA expression quantified by qRT-PCR, relative to rrsA. FIG. 1C is a graph showing fold-change in csgA expression. Motor function was assessed at 15-16 weeks of age by quantifying beam traversal time (FIG. 1D), pole descent time (FIG. 1E), nasal adhesive removal time (FIG. 1F), hindlimb clasping score (FIG. 1G), and wire hang tests (FIG. 1H). Time to cross, time to descent, time to remove, and hindlimb score were lower in the EGCG-treated mice, while time to fall was higher in the EGCG-treated mice compared to vehicle treated control.
Inhibition of functional amyloid formation was studied. Germ-free Thy1-αSyn mice (ASO) were monocolonized with wild-type E. coli and treated with water alone (Vehicle, Veh) or given EGCG ad lib in drinking water (+EGCG). Motor function was assessed at 10, 12, and 15 weeks of age by quantifying beam traversal time (FIG. 5A), pole descent time (FIG. 5B), nasal adhesive removal time (FIG. 5C), hindlimb clasping score (FIG. 5D), and wire hang tests (FIG. 5E). FIG. 5F depicts principal component analysis of compiled motor scores from FIGS. 5A-D. Thin sections of brain were stained for Iba1 (microglia) and morphological characteristics quantified of microglia resident in the striatum (FIGS. 5G-H) and substantia nigra (FIGS. 5I-J). N=10-11 (FIGS. 5A-F), n=3 (FIGS. 5G-J) (averaged from 5-7 cells for branching). Bars represent the mean and standard error. Time courses analyzed by two-way ANOVA, with Sidak post-hoc test for between group comparisons indicated above individual time points, and brackets indicating significance between treatments. Data in (FIGS. 5G-J) analyzed by two-tailed t-test. *p≤0.05; **p≤0.01; ****p≤0.0001.

## O=C(O[C@@H]1Cc2c(O)cc(O)cc2O[C@@H]1c1cc(O)c(O)c(O)c1)c1cc(O)c(O)c(O)c1 [EGCG, epigallocatechin gallate]
E. coli CsgA; read-out: Inhibition of Aggregation CsgA (compound activity range), compounds at 20 μM
  inhibition at 20 µM: 30 to 60%
E. coli CsgA; read-out: Inhibition of Aggregation CsgA, compounds at 20 μM
  inhibition at 20 µM: 56%
[1]
  progressive motor deficits exacerbated by E. coli (motor performance): successfully dampens progressive motor deficits
[1]; 15-16 weeks of age
  beam traversal time (time to cross): lower
  hindlimb clasping score: lower
  nasal adhesive removal time (time to remove): lower
  pole descent time (time to descent): lower
  wire hang test (time to fall): higher
